# Reference: patent publication US9024022B2, “Substrates of O6-alkylguanine-DNA alkyltransferase and mutants thereof” (Cis Bio International, priority 2008, dated 2015)
# pEC50: −log10 of the molar value.
# Assays:
# [1] = target: T1, SNAP-tag enzyme (GST-SNAP-tag-FKBP fusion protein) (Homo sapiens, UniProt P16455, A127T/C150S/C62A/G131K/G132T/K125A/M134L/N157G/R128A/R135S/S159E); experiment: Enzymatic reactivity test in an in vitro model (TR-FRET labeling of GST-SNAPtag-FKBP recombinant protein); type: biochemical; settings: for percentage of labeling of the SNAP-tag enzyme compared with the reference substrate: in vitro, after 30 min of incubation, regardless of the concentration of substrate; for reactivity of the substrate with the SNAP-tag enzyme: in vitro protein labeling, compared with reference substrate
# T1 construct: GST (N)
# T1 sequence (P16455 1-182 C62A/K125A/A127T/R128A/G131K/G132T/M134L/R135S/C150S/N157G/S159E limits assumed): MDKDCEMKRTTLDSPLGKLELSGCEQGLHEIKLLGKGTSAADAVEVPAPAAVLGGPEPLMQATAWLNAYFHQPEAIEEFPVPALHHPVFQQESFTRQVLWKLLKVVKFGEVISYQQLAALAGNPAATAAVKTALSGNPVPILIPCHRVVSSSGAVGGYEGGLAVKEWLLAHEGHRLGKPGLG
# Source text: The test of reactivity of the substrates according to the invention with the SNAP-tag enzyme is based on an in vitro test of labeling a recombinant protein.
# In this case, use is made of the FRB and FKBP proteins that interact in the presence of rapamycin.
# The FKBP protein is labeled by a first fluorophore via SNAP-tag technology: for this, a GST-SNAPtag-FKBP fusion protein is produced from the pSET7-26b plasmid according to the protocol of the commercial kit (SNAP express pSET7-26b kit, Covalys Biosciences AG, Witterswil/Switzerland). This fusion protein is then brought into contact with the first fluorophore conjugated to a reference BG derivative or to a BG derivative according to the invention.
# The FRB protein is itself coupled via conventional conjugation techniques with a donor fluorescent compound (europium TBP cryptate (KTBP), Cisbio Bioassay) or acceptor fluorescent compound (DY647, Dyomics) depending on the case, following the protocols provided with these products.
# The table below explains the nature of the pairs of fluorophores in each of the following examples 1 to 4:
# In each example, 2 nmol of FRB recombinant protein labeled with a europium cryptate or DY647 (2nd fluorophore) are co-incubated at ambient temperature with 2 nmol of GST-SNAP-tag-FKBP recombinant protein and increasing concentrations of BG labeled by the first fluorophore (BG-fluorophore of the prior art or BG-L1-A-L2-fluorophore according to the invention).
# The fluorescence readings are taken at 620 nm and at 665 nm on a RubyStar machine (BMG laboratory) after an excitation at 337 nm. The readings are carried out before and after induction of the FRB/FKBP protein interaction by 100 nM of rapamycin. This interaction is expressed by the emission of a TR-FRET signal. Since the SNAP-tag enzyme can only attach to a single fluorescent group, the increase in the TR-FRET signal is directly proportional to the percentage of labeled proteins in the reaction medium. This in vitro model makes it possible to establish enzymatic labeling kinetics as a function of the excess of substrate involved in the reaction.
# The results are indicated either as d665 or as % labeling according to the following formulae: d 665=(signal at 665 nm with the GST-ST-FKBP protein)−(signal at 665 nm without the GST-ST-FKBP protein).
# The percentage of labeling is obtained by comparison with the signal corresponding to the maximum labeling that is obtained after 18 hours of incubation. % labeling=(d665 at t measured/d665 18 h of incubation)×100. Procedure of the Enzymatic Reactivity Test in a Cell Model
# [2] = target: T2, CLIP-tag enzyme (CLIPtag-mGluR2 fusion protein) (Homo sapiens, UniProt P16455, K32I/L33F/M60I/C62A/Y114E/Q115S/Q116H/A121V/K125A/A127T/R128A/G131N/G132T/M134L/R135D/C150Q/S151G/S152D/G153S/A154D/N157P/S159L); experiment: Cell model with CLIPtag-mGluR2 and SNAPtag-mGluR2 cotransfection, TR-FRET at 665 nm; type: cell-based; settings: cells incubated with 300 nM of BG-methylbenzamide-DY647; TR-FRET 665 nm; read-out: half saturation concentration of CLIPtag
# T2 construct: The co-expressed SNAPtag-mGluR2 is a separate chain that carries the FRET partner dye
# T2 sequence (P16455 1-207 K32I/L33F/M60I/C62A/Y114E/Q115S/Q116H/A121V/K125A/A127T/R128A/G131N/G132T/M134L/R135D/C150Q/S151G/S152D/G153S/A154D/N157P/S159L): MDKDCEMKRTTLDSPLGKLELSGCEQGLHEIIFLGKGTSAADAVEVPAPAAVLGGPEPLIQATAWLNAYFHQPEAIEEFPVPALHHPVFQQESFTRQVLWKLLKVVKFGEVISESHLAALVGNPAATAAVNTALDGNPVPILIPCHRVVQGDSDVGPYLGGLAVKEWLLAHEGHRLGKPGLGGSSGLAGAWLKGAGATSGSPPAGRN
# Method: The cell model used in this example is different from that used in the preceding examples:
# The cells are either cotransfected with a plasmid coding for the fusion protein CLIPtag-mGluR2 and another plasmid coding for the fusion protein SNAPtag-mGluR2, or transfected with a single plasmid coding for the fusion protein SNAPtag-mGluR2.
# Each cell population is incubated in the presence of 300 nM of BG-methylbenzamide-DY647 and increasing concentrations of reference substrates (BC-Tb(KR)) or of a substrate according to the invention (BC-methylbenzamide-Tb(KR)). The fluorescence is measured at 665 nm in TR-FRET mode on a Rubystar machine and the signal measured is representative of a transfer of energy following the dimerization of two monomers of mGluR2 labeled respectively by DY647 and Tb(KR).
# This example is carried out in the same way as example 7 but the cells are incubated in the presence of 300 nM of BG-methylbenzamide-Tb(KR) and increasing concentrations of reference substrate (BC-DY647) or of substrate according to the invention (BC-methylbenzamide-DY647), the formulae of which are below: […]
# [3] = target: T3, SNAP-tag-ST26 enzyme (SNAP-tag-mGluR2 fusion protein) (Homo sapiens, UniProt P16455, A127T/C150S/C62A/G131K/G132T/K125A/M134L/N157G/R128A/R135S/S159E); experiment: Enzymatic reactivity test in a cell model, SNAP-tag-mGluR2 expressed by COS 7 cells; type: cell-based; settings: living COS 7 cells, labeling 1 h at 37° C., read-out: half saturation concentration of the enzyme
# T3 construct: expressed in transfected cells; host or cells: COS 7 cells, transient electroporation
# T3 sequence (P16455 1-182 C62A/K125A/A127T/R128A/G131K/G132T/M134L/R135S/C150S/N157G/S159E limits assumed): T1 sequence (P16455 1-182 C62A/K125A/A127T/R128A/G131K/G132T/M134L/R135S/C150S/N157G/S159E limits assumed)
# Method: (§1) This procedure makes it possible to test the reactivity of substrates according to the invention with an AGT expressed by COS 7 cells in the form of a fusion protein with the type 2 glutamate transmembrane receptor (mGluR2).
# (§2) Various mutants of AGT were analyzed in this study: SNAP-tag-ST26 or CLIP-tag from Covalys or the N-AGT mutant described by Gronemeyer et al. (Protein Engineering, Design & Selection, Vol. 19, No. 7, pp. 309-316, 2006).
# • SNAP-tag-mGluR2 plasmid, prepared from the pSET-26b plasmid according to the protocol of the commercial kit (SNAP express pSTE7-26b kit, Covalys Biosciences) • Invitrogen pcdna3.1 plasmid. This plasmid is used as a negative control; the cells transfected with this plasmid are denoted “mock” and make it possible to determine the level of non-specific labeling. Protocol:
# (§3) The transient transfection of the cells is carried out by electroporation using a Biorad electroporator: 10 million cells are transfected by 1 μg SNAP-tag-mGluR2+3 μg pcdna3.1 in a final volume of 300 μl. The electroporation parameters are: 280 V & 1000 μF.
# (§4) The cells are then seeded at 150 000 cells per well in Greiner plates (opaque black bottom) previously incubated with polyornithine for 30 minutes at 37° C.
# (§5) The cells are cultured in the DMEM+Phenol Red+10% FCS+penicillin/streptomycin+non-essential amino acids medium at 37° C. and 5% CO2. After 24 h of expression, a first washing operation is carried out with 100 μl of this same medium.
# (§6) The labeling of the AGT-mGluR2 fusion protein takes place in 100 μl of complete medium with increasing concentrations of BG-fluorophore or BG-L1-A-L2-fluorophore according to the invention for 1 h at 37° C. Before the reading, 4 washing operations are carried out with 100 μl of Tris-Krebs.
# (§7) For the substrates bearing fluorophores ATTO647 (example 2), DY647 (examples 1 and 5) and fluorescein-5-EX (example 3), the reading is carried out in 100 μl of Tris-Krebs in direct fluorescence at 682 nm on a Rubystar machine, and at 520 nm for those bearing fluorescein-5-EX (example 3).
# (§8) For the substrates bearing the terbium KR complex (examples 4 and 6), the reading is taken in 100 μl of Tris-Krebs in time-resolved fluorescence at 620 nm on a Rubystar machine.
# [4] = target: T4, N-AGT enzyme (AGT-mGluR2 fusion protein) (Homo sapiens, UniProt P16455); experiment: Enzymatic reactivity test in a cell model, N-AGT mutant; type: cell-based; settings: living cells, N-AGT mutant; labeling 1 h at 37° C.; read-out: half saturation concentration of the enzyme
# T4 construct: fused on or other part: type 2 metabotropic glutamate receptor (mGluR2)
# T4 sequence (P16455 whole entry, looked up, the tested form may be a part): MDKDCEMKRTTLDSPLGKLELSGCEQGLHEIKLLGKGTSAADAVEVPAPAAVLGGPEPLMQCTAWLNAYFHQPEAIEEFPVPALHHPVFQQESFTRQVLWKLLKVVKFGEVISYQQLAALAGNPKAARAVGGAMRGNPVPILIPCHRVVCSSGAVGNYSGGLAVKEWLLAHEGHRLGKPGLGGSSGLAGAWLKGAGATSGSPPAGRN
# Method: as §1, §2, §3, §4, §5, §6, §7, §8
# In order to validate the effect of the substrate according to the invention on another mutant of AGT, a characterization of extracellular labeling with the NAGT mutant was carried out.
compound,measurement,setting,value
"CCN1c2cc3c(cc2C(C)=CC1(C)C)C(c1ccc(C(=O)N(C)CCCC(=O)NCc2ccc(C(=O)NCc4ccc(COc5nc(N)nc6[nH]cnc56)cc4)cc2)cc1)=c1cc2c(cc1O3)=[N+](CC)C(C)(C)C=C2C [BG-methylbenzamide-ATTO647N, ATTO647N-methylbenzamide-BG]",percentage of labeling of the SNAP-tag enzyme compared with the reference substrate,[1],much better
"Nc1nc(OCc2ccc(CNC(=O)c3ccc(CNC(=O)CCSCC(=O)Nc4ccc(-c5c6ccc(=O)cc-6oc6cc(O)ccc56)c(C(=O)O)c4)cc3)cc2)c2nc[nH]c2n1 [BG-methylbenzamide-fluorescein-5-EX, fluorescein-5-EX-benzylamide-BG]",reactivity of the substrate with the SNAP-tag enzyme,[1],better than that of the reference substrate
Tb(KR)-aminomethylnicotinamide-benzylguanine [BG-aminomethylnicotinamide-Tb(KR)],reactivity of the substrate with the SNAP-tag enzyme,[1],Results similar to those obtained with the compounds of the preceding examples
Tb(KR)-methylbenzamide-BC [BC-methylbenzamide-Tb(KR)],pEC50,[2],6.88
"Nc1nc(OCc2ccc(CNC(=O)CCSCC(=O)Nc3ccc(-c4c5ccc(=O)cc-5oc5cc(O)ccc45)c(C(=O)O)c3)cc2)c2nc[nH]c2n1 [BG-fluorescein-5-EX, benzylguanine-fluorescein-5-EX, reference compound]",reactivity of the substrate with the SNAP-tag enzyme,[1],adequate
"benzylguanine-Tb(KR) [BG-Tb(KR), reference compound]",pEC50,[3],7.22
DY647-aminomethylnicotinamide-benzylguanine [BG-aminomethylnicotinamide-DY647],percentage of labeling of the SNAP-tag enzyme compared with the reference substrate,[1],much better
"CCN1/C(=C/C=C/C=C/C2=[N+](CC)c3ccc(S(=O)(=O)[O-])cc3C2(C)C)C(C)(CCCC(=O)NCc2ccc(COc3nc(N)nc4[nH]cnc34)cc2)c2cc(S(=O)(=O)O)ccc21 (stereo not drawn) [BG-DY647, benzylguanine-Dy647, reference compound]",pEC50,[3],6.77
same,pEC50,[4],7.37
